Tests used:
[1] = In vitro cytotoxicity by MTT assay, HEK 293; format: cell-based, human; settings: human, HEK 293 cells, read-out: % cytotoxicity (100 − % cell survival) of HEK 293 cell line
In short: (§1)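 Cells grown in RPMI-1640 with 10 % […] newborn calf serum were seeded at about 10,000 cells per well and left 24 h to form a partial monolayer. Compounds were then added for 72 h at 37 °C, 5 % CO2, followed by MTT for 4 h, formazan solubilized in propanol and absorbance read at 490 nm.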

[2] = tested on: BT474 (breast cancer cell line); experiment: In vitro cytotoxicity by MTT assay, BT474; format: cell-based; settings: Homo sapiens, 72 h, read-out: % cytotoxicity (100 − % cell survival) of BT474 cell line; for cytotoxicity at 0.005 µM: BT-474, 0.005 μM; for cytotoxicity at 0.015 µM: BT-474, 0.015 μM; for cytotoxicity at 0.045 µM: BT-474, 0.045 μM; for cytotoxicity at 0.13 µM: BT-474, 0.13 μM; for cytotoxicity at 0.41 µM: BT-474, 0.41 μM; for cytotoxicity at 1.23 µM: BT-474, 1.23 μM; for cytotoxicity at 3.7 µM: BT-474, 3.7 μM; for cytotoxicity at 11.11 µM: BT-474, 11.11 μM; for cytotoxicity at 33.33 µM: BT-474, 33.33 μM; for cytotoxicity at 100 µM: BT-474, 100 μM
In short: as §1

[3] = In vitro cytotoxicity by MTT assay, NCI-H226; format: cell-based; settings: human, NCI-H226 lung cancer cells, 0.015 μM, read-out: % Cytotoxicity (100 − % cell survival) of NCI-H226 cell line
In short: as §1

[4] = tested on: NCI-H226 (lung cancer cell line); experiment: In vitro cytotoxicity by MTT assay, NCI-H226; format: cell-based; settings: Homo sapiens, 72 h, read-out: % Cytotoxicity (100 − % cell survival) of NCI-H226 cell line; for cytotoxicity at 0.005 µM: NCI-H226, 0.005 μM; for cytotoxicity at 0.045 µM: NCI-H226, 0.045 μM; for cytotoxicity at 0.13 µM: NCI-H226, 0.13 μM; for cytotoxicity at 0.41 µM: NCI-H226, 0.41 μM; for cytotoxicity at 1.23 µM: NCI-H226, 1.23 μM; for cytotoxicity at 3.7 µM: NCI-H226, 3.7 μM; for cytotoxicity at 11.11 µM: NCI-H226, 11.11 μM; for cytotoxicity at 33.33 µM: NCI-H226, 33.33 μM; for cytotoxicity at 100 µM: NCI-H226, 100 μM
In short: as §1

[5] = tested on: HEK 293, M468 and NCI-H226; experiment: In vitro cytotoxicity by MTT assay, summary over all cell lines; format: cell-based; settings: on all cell lines
Protocol: The cancer cell line cultures of HEK 293 ([…]), BT474 (breast cancer cell line) and NCI-H226 (lung cancer) were obtained from Pasteur Institute of India, Coonoor, India, and were cultured in RPMI-1640 and 10 % heat-[…] New born calf serum with antibiotics [penicillin ([…]), streptomycin (100 μg/mL) and amphotericin B (25 μg/mL)]. The cells were maintained at 37 °C in a humidified atmosphere with 5 % CO2 and were subcultured twice a week.
The monolayer cell culture (100 μL) was trypsinized, and the cell count was adjusted to […] using medium containing 10 % new born calf serum. To each well of the 96-well microtitre plate, the diluted cell suspension (approximately 10,000 cells) (0.1 mL) was added and kept for 24 h in incubator at 37 °C in 5 % CO2 atmosphere for cell monolayer formation. After 24 h, when a partial monolayer was formed at the bottom of the well, the supernatant was flicked off, the monolayer was washed once, and different drugs, i.e. synthesized compounds (100 μL), were added to the cells in microtitre plates. The plates were then incubated at 37 °C for 3 days in 5 % CO2 atmosphere, and microscopic examination was carried out and observations recorded every 24 h. After 72 h, the sample solution in the wells was flicked off; MTT dye ([…]) was added to each well; plates were gently shaken and incubated for 4 h at 37 °C in 5 % CO2 incubator. The supernatant was removed and propanol (50 μL) was added; the plates were gently shaken to solubilize the formed formazan. The absorbance was measured using a microplate reader at a wavelength of 490 nm (Edmondson et al., [1988]; Prasad et al., [2005]; Chiruvella et al., [2008]; Chang et al., [2007]).

SMILES | cytotoxicity at 72 h, 0.005 µM [1] [%] | cytotoxicity at 72 h, 0.015 µM [1] [%] | cytotoxicity at 72 h, 0.045 µM [1] [%] | cytotoxicity at 72 h, 0.13 µM [1] [%] | cytotoxicity at 72 h, 0.41 µM [1] [%] | cytotoxicity at 72 h, 1.23 µM [1] [%] | cytotoxicity at 72 h, 3.7 µM [1] [%] | cytotoxicity at 72 h, 11.11 µM [1] [%] | cytotoxicity at 72 h, 33.33 µM [1] [%] | cytotoxicity at 72 h, 100 µM [1] [%] | cytotoxicity at 0.005 µM [2] [%] | cytotoxicity at 0.015 µM [2] [%] | cytotoxicity at 0.045 µM [2] [%] | cytotoxicity at 0.13 µM [2] [%] | cytotoxicity at 0.41 µM [2] [%] | cytotoxicity at 1.23 µM [2] [%] | cytotoxicity at 3.7 µM [2] [%] | cytotoxicity at 11.11 µM [2] [%] | cytotoxicity at 33.33 µM [2] [%] | cytotoxicity at 100 µM [2] [%] | other results
CC(=O)Nc1ccc(S(=O)(=O)Nc2nnc(S(=O)(=O)NC(=O)c3ccccc3N)s2)cc1 [Compound 6b] | 35.6 | 36.2 | 37.9 | 39.9 | 42.6 | 43.1 | 44 | 45.3 | 46.8 | 48.2 | 24.3 | 25.1 | 25.8 | 26.2 | 27.1 | 28.1 | 28.7 | 29.3 | 30.3 | 32 | cytotoxicity at 72 h, 0.015 µM [3]: 37.3%; cytotoxicity at 0.005 µM [4]: 36.3%; cytotoxicity at 0.045 µM [4]: 38.4%; cytotoxicity at 0.13 µM [4]: 39.1%; cytotoxicity at 0.41 µM [4]: 42%; cytotoxicity at 1.23 µM [4]: 42.7%; cytotoxicity at 3.7 µM [4]: 43.4%; cytotoxicity at 11.11 µM [4]: 45.3%; cytotoxicity at 33.33 µM [4]: 47.1%; cytotoxicity at 100 µM [4]: 49.1%; cytotoxic activity compared with all synthesized compounds [5]: moderate activity
Nc1nnc(S(=O)(=O)NC(=O)c2ccccc2)s1 [Compound 4a, 5-amino-1,3,4-thiadiazol-2-[N-(benzoyl)]sulphonamide] | 25.6 | 25.8 | 26.6 | 26.9 | 28.2 | 28.5 | 28.9 | 29.5 | 31.7 | 33 | 20.1 | 22.6 | 23.1 | 24.6 | 25.4 | 25.9 | 26.3 | 27.4 | 28.1 | 28.7 | cytotoxicity at 72 h, 0.015 µM [3]: 23.1%; cytotoxicity at 0.005 µM [4]: 22.4%; cytotoxicity at 0.045 µM [4]: 24.2%; cytotoxicity at 0.13 µM [4]: 24.9%; cytotoxicity at 0.41 µM [4]: 25.5%; cytotoxicity at 1.23 µM [4]: 26.1%; cytotoxicity at 3.7 µM [4]: 26.6%; cytotoxicity at 11.11 µM [4]: 27.1%; cytotoxicity at 33.33 µM [4]: 27.5%; cytotoxicity at 100 µM [4]: 27.9%; cytotoxic activity compared with all synthesized compounds [5]: less activity
O=C(NS(=O)(=O)c1nnc(N=Cc2ccco2)s1)c1ccccc1 [Compound 9j, N-({5-[(Furan-2-ylmethylidene)amino]-1,3,4-thiadiazol-2-yl}sulfonyl)benzamide] | 31.4 | 32.8 | 33.7 | 34.3 | 34.5 | 35 | 35.3 | 36.1 | 36.9 | 38.9 | 30.4 | 34.6 | 37.4 | 40.1 | 43.6 | 45.1 | 49.3 | 52.1 | 56.9 | 61.4 | cytotoxicity at 72 h, 0.015 µM [3]: 33.2%; cytotoxicity at 0.005 µM [4]: 33%; cytotoxicity at 0.045 µM [4]: 34.6%; cytotoxicity at 0.13 µM [4]: 35.3%; cytotoxicity at 0.41 µM [4]: 36.1%; cytotoxicity at 1.23 µM [4]: 37%; cytotoxicity at 3.7 µM [4]: 39.1%; cytotoxicity at 11.11 µM [4]: 42.7%; cytotoxicity at 33.33 µM [4]: 45.4%; cytotoxicity at 100 µM [4]: 52.4%; cytotoxic activity compared with all synthesized compounds [5]: more potent; melting point: 261 to 263 °C

Reference: PMC3973950, “Synthesis of 5-arylidine amino-1,3,4-thiadiazol-2-[(N-substituted benzyol)]sulphonamides endowed with potent antioxidants and anticancer activity induces growth inhibition in HEK293, BT474 and NCI-H226 cells” (Medicinal Chemistry Research, 2013)
